From patent US20250059164A1, “IRAK DEGRADERS AND USES THEREOF” (Kymera Therapeutics, Inc., priority 2023, published 2025) come the findings set out here.

The structures appear in SMILES notation.

This data set is described as follows: Rodent pharmacokinetics (rat PK). In kind it is in vivo. To be noted: po, dosed intravenously or orally by gavage, plasma, read-out: F % (bioavailability). On the procedure:
All studies related to handling, care, and treatment of rats in the study were performed according to the guidelines approved by the Institutional Animal Care and Use Committee (IACUC). All rats had access to food and water ad libitum. Rats were dosed intravenously or orally by gavage. Whole blood was collected from the jugular vein immediately prior to dosing and at 5 (intravenously administered drugs only), 15, and 30 min and 1, 2, 4, 8, and 24 h after drug administration. After sampling, whole blood was centrifuged at 4,000×g for 5 min at 4° C. to obtain plasma.
The letter codes for bioavailability (F %) include: A (≥5%) and B (≤5%).
In general, bioavailability refers to dose-corrected exposure relative to a reference, in per cent. Turning to `CN(C[C@H]1CC[C@H](n2cc(NC(=O)c3cnn4ccc(N5CCCC5)nc34)c(C(F)F)n2)CC1)[C@H]1CCN(c2cccc3c2n(C)c(=O)n3C2CCC(=O)NC2=O)C[C@H]1F` (single isomer, unassigned) [I-21], the bioavailability is no more than 5%. As to `CN(C[C@H]1CC[C@H](c2nc3cc(C(C)(C)O)c(NC(=O)c4cncc(C(F)(F)F)c4)cc3s2)CC1)[C@H]1CCN(c2cccc3c2n(C)c(=O)n3C2CCC(=O)NC2=O)C[C@@H]1F` (single isomer, unassigned) [I-160], the bioavailability is no less than 5%. In the case of `CN(C[C@H]1CC[C@H](c2nc3cc(C(C)(C)O)c(NC(=O)c4cccc(C(F)(F)F)c4)cc3s2)CC1)[C@@H]1CCN(c2cccc3c2n(C)c(=O)n3C2CCC(=O)NC2=O)C[C@H]1F` (single isomer, unassigned) [I-176] it was no less than 5%; in that of `CN(C[C@H]1CC[C@H](c2nc3cc(C(C)(C)O)c(NC(=O)c4cccc(C(F)(F)F)c4)cc3s2)CC1)[C@H]1CCN(c2cccc3c2n(C)c(=O)n3C2CCC(=O)NC2=O)C[C@@H]1F` (single isomer, unassigned) [I-177], no less than 5%; in that of `COc1cn2nc([C@H]3CC[C@H](CN(C)[C@H]4CCN(c5cccc6c5n(C)c(=O)n6C5CCC(=O)NC5=O)C[C@H]4F)CC3)cc2cc1NC(=O)c1cncc(C(F)(F)F)n1` (single isomer, unassigned) [I-219], no more than 5%. Take `Cn1c(=O)n(C2CCC(=O)NC2=O)c2cccc(N3CC[C@H](CN4CCN(C[C@H]5CC[C@H](n6cc(NC(=O)c7cnn8ccc(N9C[C@H]%10C[C@@H]9CO%10)nc78)c(C(F)F)n6)CC5)CC4)C3)c21` (some centres unmarked) [I-114]: the bioavailability was no more than 5%. Turning to `COc1cn2nc([C@H]3CC[C@H](CN4CC[C@@H](c5cccc6c5n(C)c(=O)n6C5CCC(=O)NC5=O)[C@H](F)C4)CC3)cc2cc1NC(=O)c1cncc(C(F)(F)F)n1` (some centres unmarked) [I-166], the bioavailability is no more than 5%.

Consider `CN(C[C@H]1CC[C@H](c2nc3cc(C(C)(C)O)c(NC(=O)c4cccc(C(F)(F)F)n4)cc3o2)CC1)[C@H]1CCN(c2cccc3c2n(C)c(=O)n3C2CCC(=O)NC2=O)C[C@H]1F` (some centres unmarked) [I-178], for which the bioavailability was no less than 5%.

In the case of `Cn1nc(C2CCC(=O)NC2=O)c2cccc(N3CCC4(CCN(C[C@H]5CC[C@H](n6cc7cc(NC(=O)c8cncc(C#N)c8)c(C(C)(C)O)cc7n6)CC5)CC4(F)F)CC3)c21` (some centres unmarked) [I-220], the bioavailability is no more than 5%.

Consider `Cn1c(=O)n(C2CCC(=O)NC2=O)c2cccc(N3CC4(CCN(C[C@H]5CC[C@H](n6cc7cc(NC(=O)c8cncc(C(F)(F)F)n8)ncc7n6)CC5)CC4(F)F)C3)c21` (some centres unmarked) [I-221], for which the bioavailability is no more than 5%. Consider `Cn1c(=O)n(C2CCC(=O)NC2=O)c2cccc([C@H]3C[C@H](COC4CCN(C[C@H]5CC[C@H](n6cc(NC(=O)c7cnn8ccc(N9C[C@H]%10C[C@@H]9CO%10)nc78)c(C(F)F)n6)CC5)CC4)C3)c21` (some centres unmarked) [I-267], for which the bioavailability is no more than 5%.
